Experimental data reported in the supplement of paper PMC6470124.

Key:
[1] = absolute recovery over mixed-bed multilayer solid-phase extraction; higher = better recovery; conditions: enrichment method: SPE
Method in brief: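 A three-layer mixed-bed cartridge was loaded with 100–250 mL of wastewater (adjusted to pH 6.5, glass-fibre filtered) or 1000 mL of unfiltered nanopure water, then eluted with basic and subsequently acidic ethyl acetate/methanol. Standards were introduced pre-extraction, post-extraction, or not at all, at 200 ng/L for water and 1000 ng/L for wastewater, except for certain classes. Once internal standards had been added, both ionisation modes were run by liquid chromatography with high-resolution tandem mass spectrometry. Absolute recovery was derived from background-corrected response ratios of pre- against post-spiked samples, averaged over at least two replicates.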

[2] = absolute recovery over vacuum-assisted evaporative concentration; higher = better recovery; conditions: enrichment method: VEC
Method in brief: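 Water samples (influent 6 mL, effluent 15 mL, surface and nanopure water 60 mL) were spiked with standards before concentration, after concentration or not at all, at 200 ng/L (nanopure/surface) or 1000 ng/L (wastewater), with class- and compound-specific adjustments. They were evaporated at 55 °C and 20 mbar to about 0.3 mL, brought to 0.4 mL and centrifuged. Internal standards were added afterwards and samples were analysed by LC-HRMS/MS. Absolute recovery was (response ratio pre − unspiked)/(post − unspiked) × 100, using averages of ≥ 2 replicates.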

[3] = LC retention time (Atlantis T3, 5-95% MeOH gradient, 0.1% formic acid); higher = more retained / less polar
Method in brief: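 Retention times refer to reference standards measured by liquid chromatography with high-resolution tandem mass spectrometry. Separation was on an Atlantis T3 C18 column (3 × 150 mm, 3 μm) at 0.3 mL/min with a 5 to 95% methanol gradient over 17.5 min, both solvents carrying 0.1% formic acid. Positive and negative electrospray were run separately on a QExactive Plus, and TraceFinder peak integration (5 ppm tolerance, at least three points per peak) was reviewed by hand.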

| SMILES | absolute recovery ([1]; nanopure water) [%] | absolute recovery ([1]; surface water) [%] | absolute recovery ([1]; wastewater effluent) [%] | absolute recovery ([1]; wastewater influent) [%] | absolute recovery ([2]; wastewater effluent) [%] | absolute recovery ([2]; wastewater influent) [%] | LC retention time [3] [min] |
| --- | --- | --- | --- | --- | --- | --- | --- |
| Nc1[nH]c2ccccc2[nH+]1 [2-Aminobenzimidazol] | 90.5 | 90.3 | 91.9 | 92 | 103 | 99.3 | 9.5 |
| Cn1sccc1=O [2-Methyl-4-isothiazolin-3-one] | 12 | 11 | 11.7 | 17 | 93.6 | 27 | 7.95 |
| O=S(=O)([O-])c1ccc2ccccc2c1 [2-Naphthalenesulfonic-acid] |  |  | 92.6 |  | 114 | 88.2 | 17.2 |
| CCCCCCCCn1sccc1=O [2-n-Octyl-4-isothiazolin-3-on (=OIT)] | 93 | 91.6 | 91.8 | 90.7 | 97.9 | 45.2 | 20.3 |
| Nc1c(I)c(N)c(I)c(C(=O)[O-])c1I [3-5-Diamino-2-4-6-triiodobenzoic-acid] | 95.4 | 91.9 | 68.2 | 82.4 | 104 | 97.2 | 15.4 |
| O=C([O-])c1cc(Br)c([O-])c(Br)c1 [3-5-Dibromo-4-hydroxybenzoic-acid] |  | 92.6 | 97.9 | 94.4 | 104 | 99.2 | 17.6 |
| [NH3+]C(Cc1cc(I)c(O)c(I)c1)C(=O)[O-] [3-5-Diiodo-L-tyrosine] | 69.5 | 39.2 | 55.8 | 74.5 | 90.5 | 96.4 | 13.2 |
| O=C([O-])c1cccc(Oc2ccccc2)c1 [3-Phenoxybenzoic-acid] | 103 |  | 96.1 | 99.4 | 98.8 | 102 | 19.8 |
| Nc1ccc(C=Cc2ccc(N)cc2S(=O)(=O)[O-])c(S(=O)(=O)[O-])c1 [4-4-diamino-2,2-stilbenedisulfonic-acid] | 14.5 | 3.4 | 9.1 | 7.8 | 30 |  | 4.15 |
| CCCCCCCCn1sc(Cl)c(Cl)c1=O [4-5-Dichloro-2-n-octyl-isothiazol-3(2H)-on (=DCOIT)] | 93 | 62.5 | 66.5 | 60.8 | 19.3 |  | 22.7 |
| Cc1c(N)c(=O)n(-c2ccccc2)n1C [4-Aminopyrin (=4-Aminoantipyrin, 4-AA)] | 37.8 | 55.7 | 24.6 | 37.4 | 84.1 | 75.5 | 9.66 |
| Cc1c(N(C)C)c(=O)n(-c2ccccc2)n1C [4-Dimethylaminoantipyrin (=Aminopyrin)] | 72.8 | 79.5 | 77 | 88.2 | 89.8 | 92.9 | 9.33 |
| CC1(C)CC(O)CC(C)(C)[NH+]1CCO [4-Hydroxy-1-(2-hydroxyethyl)-2-2-6-6-tetramethylpiperidine] | 71.9 | 61.7 | 54.6 | 52.7 | 92.4 | 130 | 4.55 |
| O=C([O-])Cc1ccccc1Nc1c(Cl)cc(O)cc1Cl [4-Hydroxydiclofenac A] | 73.5 | 81.4 | 76.2 | 83.3 | 95.8 | 92.8 | 19.2 |
| CC(C)c1ccc(N)cc1 [4-Isopropylanilin] | 95.5 | 80.7 | 80.1 | 84.8 | 93.8 | 96.6 | 10.4 |
| Cn1sc(Cl)cc1=O [5-Chloro-2-methyl-4-isothiazolin-3-on (=CMI)] | 85.1 | 56.7 | 66.5 |  | 65.2 |  | 12.4 |
| Nc1[nH]c(=O)ncc1F [5-Fluoro-Cytosine] | 4.4 | 5.9 | 5.4 | 4.3 | 107 | 58.4 | 3.63 |
| O=c1[nH]cc(F)c(=O)[nH]1 [5-Fluorouracil] | 5 | 7.7 | 7.4 | 9.3 | 79.1 | 69.1 | 5.37 |
| Cc1ccc2[nH]nnc2c1 [5-Methyl-Benzotriazol] | 95.7 |  |  | 97.5 | 102 | 100 | 15.4 |
| Cc1cncc(C(=O)[O-])c1 [5-Methylpyridine-3-carboxylic-acid] | 109 | 34.2 | 90.9 | 100 | 94.9 | 141 | 6.89 |
| O=C([O-])C=C(F)C(F)(F)C(F)(F)C(F)(F)C(F)(F)C(F)(F)F [6-2-FTUCA] | 69.6 | 89.6 | 97.8 | 77.9 | 143 | 97.7 | 23.2 |
| C=CC1=C(C(=O)[O-])N2C(=O)C([NH3+])C2SC1 (stereo not drawn) [7-Amino-3-vinyl-3-cephem-4-carboxylic-acid] | 47.7 |  |  | 37.9 | 95.6 | 96.5 | 6.11 |
| CC1(C(=O)[O-])CCC2(C)CCC3(C)C(=CC(=O)C4C5(C)CCC(O)C(C)(C)C5CCC43C)C2C1 (stereo not drawn) [18-beta-Glycyrrhetinic-acid] | 90.6 | 103 | 84.8 | 90.8 | 88.9 | 27.7 | 24.5 |
| CC(=O)N(C)N(C(=O)C(=O)N(C)C)c1ccccc1 [AMDOPH] | 94.8 | 93.2 | 93.2 | 90.8 | 114 | 114 | 13.9 |
| COc1ccc2c(c1)c(CC(=O)OCC(=O)[O-])c(C)n2C(=O)c1ccc(Cl)cc1 [Acemetacin] | 76.1 | 59.7 | 75.6 | 116 | 97.8 | 99.4 | 21.4 |
| CC(=NC#N)N(C)Cc1ccc(Cl)nc1 [Acetamiprid] | 110 | 93.8 | 89 |  | 102 | 90.8 | 14.3 |

| SMILES | absolute recovery ([1]; nanopure water) [%] | absolute recovery ([1]; surface water) [%] | absolute recovery ([1]; wastewater effluent) [%] | absolute recovery ([1]; wastewater influent) [%] | absolute recovery ([2]; wastewater effluent) [%] | absolute recovery ([2]; wastewater influent) [%] | LC retention time [3] [min] |
| --- | --- | --- | --- | --- | --- | --- | --- |
| CC(=O)Nc1nnc(S([NH-])(=O)=O)s1 [Acetazolamide] | 90.8 | 95.6 | 94.2 | 96.6 | 106 | 107 | 10.5 |
| CCOCN(C(=O)CCl)c1c(C)cccc1CC [Acetochlor B] | 94 | 93.3 | 91.1 | 91.6 | 83.4 | 76.8 | 20.4 |
| CNC(=O)ON=CC(C)(C)SC [Aldicarb] | 88.2 |  |  |  | 99.1 | 91.7 | 16 |
| COc1cc2[nH+]c(N(C)CCCNC(=O)C3CCCO3)nc(N)c2cc1OC (stereo not drawn) [Alfuzosin] | 93.2 | 96.3 | 96 | 99.6 | 99.1 | 97 | 13.2 |
| COCCCOc1cc(CC(CC([NH3+])C(O)CC(C(=O)NCC(C)(C)C(N)=O)C(C)C)C(C)C)ccc1OC (stereo not drawn) [Aliskiren] | 67 | 82.7 | 68.3 | 72.9 | 87.1 | 91.1 | 16.7 |
| [NH3+]C12CC3CC(CC(C3)C1)C2 [Amantadine] | 90.7 | 79.3 | 86.2 | 87.2 | 104 | 114 | 12.1 |
| COc1cc(OC)nc(NC(=O)[N-]S(=O)(=O)N(C)S(C)(=O)=O)n1 [Amidosulfuron] | 94.7 | 101 | 93.3 | 111 | 112 | 98.2 | 18 |
| CC[NH+]1CCCC1CNC(=O)c1cc(S(=O)(=O)CC)c(N)cc1OC (stereo not drawn) [Amisulprid] | 93.1 | 94.8 | 93.4 | 92.7 | 106 | 102 | 10.4 |
| CC[N+]1([O-])CCCC1CNC(=O)c1cc(S(=O)(=O)CC)c(N)cc1OC (stereo not drawn) [Amisulpride-N-Oxide] | 99.2 | 95.3 | 93.2 | 93.4 | 105 | 105 | 11.2 |
| C[NH+](C)CCC=C1c2ccccc2CCc2ccccc21 [Amitriptyline E] | 84.5 | 106 | 96.3 | 58.1 | 110 | 108 | 16.1 |
| CC1(C)SC(CNC(=O)C([NH3+])c2ccc(O)cc2)[NH2+]C1C(=O)[O-] (stereo not drawn) [Amoxicillin-EP-Impurity-E] |  | 12.2 | 17.8 | 30.7 | 59.2 | 96.9 | 9.5 |
| O=C1C=CC(=C2NC=CNC2=O)C=C1 [Amoxicillin-EP-Impurity-F] | 76.8 | 79.4 | 82.1 | 91.7 | 105 | 107 | 12.3 |
| CC([NH3+])Cc1ccccc1 (stereo not drawn) [Amphetamin] | 97.7 | 85.5 | 87.4 | 91.8 | 97.8 | 85.5 | 10.4 |
| COC(=O)C(Cc1ccccc1)NC(=O)C([NH3+])CC(=O)[O-] (stereo not drawn) [Aspartam] | 50 | 41.1 | 53.3 | 58.7 | 48 | 36.3 | 12.6 |
| COC(=O)[N-]S(=O)(=O)c1ccc(N)cc1 [Asulam] | 101 | 34.2 | 42.6 | 43.9 | 95.8 | 88.4 | 10.5 |
| COC(=O)NC(C(=O)NC(Cc1ccccc1)C(O)CN(Cc1ccc(-c2ccccn2)cc1)NC(=O)C(NC(=O)OC)C(C)(C)C)C(C)(C)C (stereo not drawn) [Atazanavir] | 87.6 | 100 | 95.5 | 95.1 | 116 | 61.4 | 20.3 |
| CC(C)[NH2+]CC(O)COc1ccc(CC(=O)[O-])cc1 (stereo not drawn) [Atenolol-acid (=Metoprolol acid)] | 97.3 | 98.9 | 92.1 | 75.4 | 108 | 104 | 10.5 |
| NC(=O)Cc1ccc(OCC(O)C[NH3+])cc1 (stereo not drawn) [Atenolol-desisopropyl] | 65.5 | 70.3 | 65.2 | 52.7 | 87.6 |  | 6.53 |
| CC(C)[NH2+]CC(O)COc1ccc(CC(N)=O)cc1 (stereo not drawn) [Atenolol] | 92.1 | 92.6 | 87.4 | 90.6 | 107 | 103 | 8.64 |
| C[NH2+]CCC(Oc1ccccc1C)c1ccccc1 (stereo not drawn) [Atomoxetin] | 74.6 | 87 | 79.7 | 94.5 | 102 | 96.6 | 15.5 |
| CC(C)c1c(C(=O)Nc2ccccc2)c(-c2ccccc2)c(-c2ccc(F)cc2)n1CCC(O)CC(O)CC(=O)[O-] (stereo not drawn) [Atorvastatin] | 31 | 42.7 | 45.5 | 46.5 | 49.3 | 57.8 | 19.8 |
| CCNc1nc(NC(C)C)nc(OC)n1 [Atraton] | 92.8 | 94.2 | 90.4 | 96 | 101 | 102 | 14.4 |
| CCNc1nc(O)nc(NC(C)C)n1 [Atrazin-2-Hydroxy] | 97.8 | 98 | 94.5 | 90 | 102 | 102 | 11.4 |
| CC(C)Nc1nc(N)nc(Cl)n1 [Atrazin-Desethyl] | 92.5 | 96.9 | 92.1 | 91.6 | 102 | 101 | 15.3 |
| CCNc1nc(N)nc(Cl)n1 [Atrazin-Desisopropyl] | 93.4 | 93.3 | 91.3 | 94.6 | 102 | 103 | 13.4 |
